Measured values published in PubChem BioAssay (NCI).
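Here, GI50 denotes the concentration required for 50% inhibition of growth. TGI is the concentration that stops growth completely.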

Legend:
Experiment in all cases: NCI tumour cell line growth inhibition, 384-well format
786-0 renal = test system: 786-0 renal
SN12C renal = test system: SN12C renal
COLO 205 colon = test system: COLO 205 colon
NCI-H322M lung = test system: NCI-H322M lung
DU-145 prostate = test system: DU-145 prostate
NCI-H226 lung = test system: NCI-H226 lung
MDA-MB-435 melanoma = test system: MDA-MB-435 melanoma
OVCAR-4 ovarian = test system: OVCAR-4 ovarian
SK-MEL-2 melanoma = test system: SK-MEL-2 melanoma
SK-OV-3 ovarian = test system: SK-OV-3 ovarian
OVCAR-8 ovarian = test system: OVCAR-8 ovarian
CAKI-1 renal = test system: CAKI-1 renal
M14 melanoma = test system: M14 melanoma
HT29 colon = test system: HT29 colon
A549 NSCLC = test system: A549 NSCLC
SF-268 CNS = test system: SF-268 CNS
UACC-62 melanoma = test system: UACC-62 melanoma
HOP-62 NSCLC = test system: HOP-62 NSCLC
HS 578T breast = test system: HS 578T breast
IGROV1 ovarian = test system: IGROV1 ovarian
RXF 393 renal = test system: RXF 393 renal
MALME-3M melanoma = test system: MALME-3M melanoma
BT-549 breast = test system: BT-549 breast
HCC-2998 colon = test system: HCC-2998 colon
HCT-15 colon = test system: HCT-15 colon
OVCAR-5 ovarian = test system: OVCAR-5 ovarian
SF-539 CNS = test system: SF-539 CNS
NCI-H460 NSCLC = test system: NCI-H460 NSCLC
NCI-H23 lung = test system: NCI-H23 lung
OVCAR-3 ovarian = test system: OVCAR-3 ovarian
NCI/ADR-RES ovarian = test system: NCI/ADR-RES ovarian
UACC-257 melanoma = test system: UACC-257 melanoma
SF-295 CNS = test system: SF-295 CNS
MOLT-4 leukemia = test system: MOLT-4 leukemia
U251 glioblastoma = test system: U251 glioblastoma
SW-620 colon = test system: SW-620 colon
A498 renal = test system: A498 renal
T-47D breast = test system: T-47D breast
MDA-MB-468 breast = test system: MDA-MB-468 breast
RPMI-8226 leukemia = test system: RPMI-8226 leukemia
ACHN renal = test system: ACHN renal
SNB-19 CNS = test system: SNB-19 CNS
HOP-92 NSCLC = test system: HOP-92 NSCLC
PC-3 prostate = test system: PC-3 prostate
SNB-75 CNS = test system: SNB-75 CNS
EKVX NSCLC = test system: EKVX NSCLC
MDA-MB-231 breast = test system: MDA-MB-231 breast
MCF7 breast = test system: MCF7 breast
CCRF-CEM leukemia = test system: CCRF-CEM leukemia
TK-10 renal = test system: TK-10 renal
KM12 colon = test system: KM12 colon
SK-MEL-5 melanoma = test system: SK-MEL-5 melanoma
NCI-H522 lung = test system: NCI-H522 lung
SR leukemia = test system: SR leukemia
SK-MEL-28 melanoma = test system: SK-MEL-28 melanoma
HL-60(TB) leukemia = test system: HL-60(TB) leukemia

Compound: CC1(C)CCC2=C(O1)c1ccccc1C(=O)C2=O
- GI50 (786-0 renal): 1840 nM
- TGI (786-0 renal): 3.37 µM
- GI50 (SN12C renal): 1610 nM
- TGI (SN12C renal): 2980 nM
- GI50 (COLO 205 colon): 2270 nM
- TGI (COLO 205 colon): 3.73 µM
- GI50 (NCI-H322M lung): 2510 nM
- TGI (NCI-H322M lung): 5.8 µM
- GI50 (DU-145 prostate): 1850 nM
- TGI (DU-145 prostate): 3.28 µM
- GI50 (NCI-H226 lung): 2000 nM
- TGI (NCI-H226 lung): 3.44 µM
- GI50 (MDA-MB-435 melanoma): 1860 nM
- TGI (MDA-MB-435 melanoma): 3.27 µM
- GI50 (OVCAR-4 ovarian): 2000 nM
- TGI (OVCAR-4 ovarian): 3.43 µM
- GI50 (SK-MEL-2 melanoma): 3.02 µM
- TGI (SK-MEL-2 melanoma): 4.53 µM
- GI50 (SK-OV-3 ovarian): 1750 nM
- TGI (SK-OV-3 ovarian): 3.28 µM
- GI50 (OVCAR-8 ovarian): 1980 nM
- TGI (OVCAR-8 ovarian): 3.72 µM
- GI50 (CAKI-1 renal): 1870 nM
- TGI (CAKI-1 renal): 3.28 µM
- GI50 (M14 melanoma): 1940 nM
- TGI (M14 melanoma): 3.37 µM
- GI50 (HT29 colon): 1880 nM
- TGI (HT29 colon): 3.31 µM
- GI50 (A549 NSCLC): 1910 nM
- TGI (A549 NSCLC): 3.35 µM
- GI50 (SF-268 CNS): 1970 nM
- TGI (SF-268 CNS): 3.49 µM
- GI50 (UACC-62 melanoma): 1970 nM
- TGI (UACC-62 melanoma): 3.4 µM
- GI50 (HOP-62 NSCLC): 1610 nM
- TGI (HOP-62 NSCLC): 2980 nM
- GI50 (HS 578T breast): 1700 nM
- TGI (HS 578T breast): 3.08 µM
- GI50 (IGROV1 ovarian): 2020 nM
- TGI (IGROV1 ovarian): 3.82 µM
- GI50 (RXF 393 renal): 1930 nM
- TGI (RXF 393 renal): 3.35 µM
- GI50 (MALME-3M melanoma): 1990 nM
- TGI (MALME-3M melanoma): 3.42 µM
- GI50 (BT-549 breast): 1770 nM
- TGI (BT-549 breast): 3.16 µM
- GI50 (HCC-2998 colon): 1750 nM
- TGI (HCC-2998 colon): 3.42 µM
- GI50 (HCT-15 colon): 1840 nM
- TGI (HCT-15 colon): 3.26 µM
- GI50 (OVCAR-5 ovarian): 1620 nM
- TGI (OVCAR-5 ovarian): 2990 nM
- GI50 (SF-539 CNS): 1890 nM
- TGI (SF-539 CNS): 3.31 µM
- GI50 (NCI-H460 NSCLC): 1900 nM
- TGI (NCI-H460 NSCLC): 3.5 µM
- GI50 (NCI-H23 lung): 1370 nM
- TGI (NCI-H23 lung): 2670 nM
- GI50 (OVCAR-3 ovarian): 1790 nM
- TGI (OVCAR-3 ovarian): 3.22 µM
- GI50 (NCI/ADR-RES ovarian): 2080 nM
- TGI (NCI/ADR-RES ovarian): 3.74 µM
- GI50 (UACC-257 melanoma): 1670 nM
- TGI (UACC-257 melanoma): 3.05 µM
- GI50 (SF-295 CNS): 1480 nM
- TGI (SF-295 CNS): 2910 nM
- GI50 (MOLT-4 leukemia): 1760 nM
- TGI (MOLT-4 leukemia): 3.17 µM
- GI50 (U251 glioblastoma): 2010 nM
- TGI (U251 glioblastoma): 3.63 µM
- GI50 (SW-620 colon): 1790 nM
- TGI (SW-620 colon): 3.2 µM
- GI50 (A498 renal): 1940 nM
- TGI (A498 renal): 3.47 µM
- GI50 (T-47D breast): 1360 nM
- TGI (T-47D breast): 2660 nM
- GI50 (MDA-MB-468 breast): 1200 nM
- TGI (MDA-MB-468 breast): 2450 nM
- GI50 (RPMI-8226 leukemia): 1820 nM
- TGI (RPMI-8226 leukemia): 3.23 µM
- GI50 (ACHN renal): 1900 nM
- TGI (ACHN renal): 3.32 µM
- GI50 (SNB-19 CNS): 1880 nM
- TGI (SNB-19 CNS): 3.43 µM
- GI50 (HOP-92 NSCLC): 1880 nM
- TGI (HOP-92 NSCLC): 3.33 µM
- GI50 (PC-3 prostate): 2140 nM
- TGI (PC-3 prostate): 4.98 µM
- GI50 (SNB-75 CNS): 950 nM
- TGI (SNB-75 CNS): 2140 nM
- GI50 (EKVX NSCLC): 1750 nM
- TGI (EKVX NSCLC): 3.15 µM
- GI50 (MDA-MB-231 breast): 1880 nM
- TGI (MDA-MB-231 breast): 3.54 µM
- GI50 (MCF7 breast): 1790 nM
- TGI (MCF7 breast): 3.21 µM
- GI50 (CCRF-CEM leukemia): 1890 nM
- TGI (CCRF-CEM leukemia): 3.32 µM
- GI50 (TK-10 renal): 3.37 µM
- TGI (TK-10 renal): 10.6 µM
- GI50 (KM12 colon): 2060 nM
- TGI (KM12 colon): 3.8 µM
- GI50 (SK-MEL-5 melanoma): 1750 nM
- TGI (SK-MEL-5 melanoma): 3.14 µM
- GI50 (NCI-H522 lung): 1840 nM
- TGI (NCI-H522 lung): 3.24 µM
- GI50 (SR leukemia): 1890 nM
- TGI (SR leukemia): 3.32 µM
- GI50 (SK-MEL-28 melanoma): 2480 nM
- TGI (SK-MEL-28 melanoma): 3.96 µM
- GI50 (HL-60(TB) leukemia): 1440 nM
- TGI (HL-60(TB) leukemia): 2790 nM
